How the values were obtained:
Assay type in all cases: in vivo
[1] = test system: writhes induced by intraperitoneal acetic acid; assay: Analgesic activity, acetic acid-induced writhing test (peripheral pain model); details: for Writhing inhibition, % of control in 1 mg/kg dose: 1 mg/kg intraperitoneally, 40 min before 0.75% acetic acid; for ED50, analgesic activity in writhing test / ED50: intraperitoneal, Prozorovsky method; for ED50: ip
Experimental: Assessment of analgesic activity was performed in a model of peripheral pain based on chemical pain induced by intraperitoneal administration of acetic acid, leading to involuntary contractions of abdominal muscles, termed “writhes”, accompanied by hind leg extension and spine arching. The writhes were induced by 0.75% solution of acetic acid, which was administered intraperitoneally 40 min after intraperitoneal administration of test compounds in 0.001-5 mg/kg dose range. […] Analgesic activity was assessed by the ability of the compounds to reduce the number of writhes in test group compared to control group, and indicated as percentage using the following formula: AA=(Wc−Wt/Wc)×100%,
where AA—analgesic activity in %;
Wc—average number of writhes in control group;
Wt—average number of writhes in test group
Test compounds were studied in comparison with the reference drug sodium diclofenac in 10 mg/kg dose. ED50 was calculated using Prozorovsky method.

[2] = test system: number of drinking actions despite electric shock; assay: Anxiolytic activity, conflict situation model (drinking versus electric shock); details: for Anxiolytic activity assessed using conflict situation method (5 mg/kg): number of drinking actions despite electric shock, 30 min before test; for Anxiolytic properties: 5 mg/kg
Experimental: Anxiolytic activity was assessed in a model of conflict situation based on the conflict of two reflexes (drinking and defensive) when drinking water from a water fountain. Anxiolytic activity was assessed by the number of drinking actions despite electric shock.
(§1) Diazepam drug was used as the reference drug. All test compounds and the reference drug diazepam were administered in a suspension with Tween-80 in 5 mg/kg dose 30 min before the start of experiments.

[3] = test system: general movement activity of animals; assay: General movement activity, open field test; details: for General movement activity (5 mg/kg): open field 3 min, sum of rearings, transitions, explored holes, 30 min before test
Experimental: General movement activity was assessed in an open field test. While the animals were in the open field (3 min), the number of rearings (vertical movement activity), transitions between squares (horizontal movement activity) and the number of explored holes (exploratory activity) were registered. The sum of these values is general movement activity.
as §1

food consumption by rats = assay: Action on appetite, Anorexia method (liquid food consumption); details: for Amount of consumed liquid food during 30 min in ml / Food consumption, % of control: dose 0,1 mg/kg intraperitoneally; for Reduction in appetite and food consumption compared to control: Table 6 dose 0,1 mg/kg
Experimental: Studies of pharmacological activity of 3-arylamino-1,3-dihydro-2H-benzo[e][1,4]diazepin-2-ones, namely, their action of appetite, assessment of antihypoxic and antidepressant activity was performed in white male rats with body mass 150-180 g and male mice with body mass 18-22 g. The animals were kept on a standard laboratory diet and natural lighting. Animals of control group were given a water-Tween suspension. Test compounds were administered in a suspension with Tween-80 Reference drugs were the hormone leptin, in 0.0002 mg/kg dose, and a well-known antidepressant amitriptyline (solution for injections in 1 ml vials. Test compounds and the water-Tween suspension were administered in a dose of 0.2 ml/100 g of rat body mass.
The action of the compounds on rat appetite was studied using «norexia» method. For 2 weeks in an experimental equipment the rats were conditioned to consume liquid food. Then a water-Tween suspension of test articles was administered intraperitoneally to conditioned animals one day before the experiment. After 40 minutes the animals were allowed access to liquid food and the amount of consumed food (in ml) of every rat was registered every 30 minutes for 3 hours. The next day after 2 hours of deprivation the rats in control group were administered a water-Tween suspension intraperitoneally, while the test group was administered the test articles. After 40 minutes the animals were allowed access to liquid food and the amount of consumed food (in ml) of every rat was registered every 30 minutes for 3 hours. Then all food consumption values for each rat were summed and compared to control values. The control group has consumed on average 7 ml of liquid food per 30 minutes. The effect was calculated in percentage compared to control.

Row | SMILES | Writhing inhibition, % of control in 1 mg/kg dose ([1]; compounds Ib) [%] | Anxiolytic activity assessed using conflict situation method (5 mg/kg) [2] | General movement activity (5 mg/kg) [3] | Amount of consumed liquid food during 30 min in ml (food consumption by rats) | Food consumption, % of control (food consumption by rats) [%] | other results
1 | CCOC1N=C(c2ccccc2)c2cc(Cl)ccc2N(CC(=O)OC)C1=O (stereo not drawn) [Compound 21] | – | – | – | – | – | Writhing inhibition, % of control in 1 mg/kg dose ([1]; compounds Ia): 62%; ED50, analgesic activity in writhing test [1]: 0.29 ± 0.025 mg/kg
2 | CCCOC1N=C(c2ccccc2)c2cc(Cl)ccc2N(CC(=O)OC)C1=O (stereo not drawn) [Compound 22] | – | – | – | – | – | Writhing inhibition, % of control in 1 mg/kg dose ([1]; compounds Ia): 70%; ED50, analgesic activity in writhing test [1]: 0.08 ± 0.02 mg/kg
3 | CCCCOC1N=C(c2ccccc2)c2cc(Cl)ccc2N(CC(=O)OC)C1=O (stereo not drawn) [Compound 23] | – | – | – | – | – | Writhing inhibition, % of control in 1 mg/kg dose ([1]; compounds Ia): 52%
4 | COC(=O)CN1C(=O)C(Nc2ccccc2C(C)=O)N=C(c2ccccc2F)c2cc(Br)ccc21 (stereo not drawn) [Compound 89] | 66 | 3.4 ± 1.2 | 40.0 ± 2.7 | – | – | Sedative properties (words, from general movement activity versus control) ([3]; 5 mg/kg): don't have sedative properties
5 | COC(=O)CN1C(=O)C(Nc2cccc(C(C)=O)c2)N=C(c2ccccc2F)c2cc(Br)ccc21 (stereo not drawn) [Compound 90] | 68 | 8.2 ± 3.4 | 24.5 ± 2.3 | – | – | –
6 | COC(=O)CN1C(=O)C(Nc2ccc(C(C)=O)cc2)N=C(c2ccccc2F)c2cc(Br)ccc21 (stereo not drawn) [Compound 91] | 62 | 4.9 ± 2.2 | 25.2 ± 2.1 | – | – | –
7 | O=C1Nc2ccc(Cl)cc2C(c2ccccc2)=NC1Nc1ccccc1F (stereo not drawn) [Compound 152] | – | – | – | 3,5 ± 1,3 ml | 47 | –
8 | O=C1Nc2ccc(Cl)cc2C(c2ccccc2)=NC1Nc1ccccc1Br (stereo not drawn) [Compound 161] | – | – | – | 5,5 ± 2,4 ml | 74 | –
9 | O=C1Nc2ccc(Cl)cc2C(c2ccccc2)=NC1Nc1cccc(Br)c1 (stereo not drawn) [Compound 162] | – | – | – | 5,1 ± 2,2 ml | 69 | –
10 | O=C1Nc2ccc(Cl)cc2C(c2ccccc2)=NC1Nc1ccc(Br)cc1 (stereo not drawn) [Compound 163] | – | – | – | 6,8 ± 2,7 ml | 92 | –
11 | COC(=O)CN1C(=O)C(Nc2ccccc2[N+](=O)[O-])N=C(c2ccccc2)c2cc(Cl)ccc21 (stereo not drawn) [Compound 173] | 55 | 120.5 ± 10.3 | 15.0 ± 1.3 | – | – | Anxiolytic properties [2]: potent anxiolytic properties
12 | COC(=O)CN1C(=O)C(Nc2cccc([N+](=O)[O-])c2)N=C(c2ccccc2)c2cc(Cl)ccc21 (stereo not drawn) [Compound 174] | 58 | 60.6 ± 7.0 | 18.0 ± 2.4 | – | – | –
13 | COC(=O)CN1C(=O)C(Nc2ccc([N+](=O)[O-])cc2)N=C(c2ccccc2)c2cc(Cl)ccc21 (stereo not drawn) [Compound 175] | 55 | 48.7 ± 3.6 | 20.0 ± 1.0 | – | – | –
14 | O=C1Nc2ccc(OC(F)(F)F)cc2C(c2ccccc2)=NC1Nc1cccc(Cl)c1 (stereo not drawn) [Compound 195] | – | – | – | 5,7 ± 2,2 ml | 77 | –
15 | O=C1Nc2ccc(OC(F)(F)F)cc2C(c2ccccc2)=NC1Nc1ccc(Cl)cc1 (stereo not drawn) [Compound 196] | – | – | – | 6,5 ± 3,2 ml | 88 | –
16 | COC(=O)CN1C(=O)C(Nc2ccccc2[N+](=O)[O-])N=C(c2ccccc2)c2cc(OC(F)(F)F)ccc21 (stereo not drawn) [Compound 227] | 60 | 109.5 ± 8.3 | 13.0 ± 1.3 | – | – | Anxiolytic properties [2]: potent anxiolytic properties
17 | COC(=O)CN1C(=O)C(Nc2cccc([N+](=O)[O-])c2)N=C(c2ccccc2)c2cc(OC(F)(F)F)ccc21 (stereo not drawn) [Compound 228] | 62 | 40.6 ± 3.9 | 17.0 ± 2.4 | – | – | –

Row | SMILES | Writhing inhibition, % of control in 1 mg/kg dose ([1]; compounds Ib) [%] | Anxiolytic activity assessed using conflict situation method (5 mg/kg) [2] | General movement activity (5 mg/kg) [3] | Amount of consumed liquid food during 30 min in ml (food consumption by rats) | Food consumption, % of control (food consumption by rats) [%] | other results
18 | COC(=O)CN1C(=O)C(Nc2ccc([N+](=O)[O-])cc2)N=C(c2ccccc2)c2cc(OC(F)(F)F)ccc21 (stereo not drawn) [Compound 229] | 59 | 38.7 ± 2.6 | 19.0 ± 1.0 | – | – | –
19 | O=C1Nc2ccc([N+](=O)[O-])cc2C(c2ccccc2)=NC1Nc1ccccc1Cl (stereo not drawn) [Compound 248] | – | – | – | 3,1 ± 2,4 ml | 41 | Reduction in appetite and food consumption compared to control (food consumption by rats): 41%
20 | O=C1Nc2ccc([N+](=O)[O-])cc2C(c2ccccc2)=NC1Nc1cccc(Cl)c1 (stereo not drawn) [Compound 249] | – | – | – | 5,1 ± 2,2 ml | 69 | –
21 | COC(=O)CN1C(=O)C(Nc2ccccc2[N+](=O)[O-])N=C(c2ccccc2)c2cc([N+](=O)[O-])ccc21 (stereo not drawn) [Compound 281] | 61 | 115.6 ± 9.3 | 14.0 ± 1.4 | – | – | Anxiolytic properties [2]: potent anxiolytic properties
22 | COC(=O)CN1C(=O)C(Nc2cccc([N+](=O)[O-])c2)N=C(c2ccccc2)c2cc([N+](=O)[O-])ccc21 (stereo not drawn) [Compound 282] | 59 | 44.7 ± 3.9 | 19.0 ± 2.4 | – | – | –
23 | COC(=O)CN1C(=O)C(Nc2ccc([N+](=O)[O-])cc2)N=C(c2ccccc2)c2cc([N+](=O)[O-])ccc21 (stereo not drawn) [Compound 283] | 54 | 45.1 ± 2.6 | 22.0 ± 2.0 | – | – | –
24 | O=C1Nc2ccc([N+](=O)[O-])cc2C(c2ccccc2Cl)=NC1Nc1ccccc1Br (stereo not drawn) [Compound 320] | – | – | – | 6,5 ± 3,4 ml | 88 | –
25 | O=C1Nc2ccc([N+](=O)[O-])cc2C(c2ccccc2Cl)=NC1Nc1cccc(Br)c1 (stereo not drawn) [Compound 321] | – | – | – | 6,1 ± 3,2 ml | 82 | –
26 | O=C1Nc2ccc([N+](=O)[O-])cc2C(c2ccccc2Cl)=NC1Nc1ccc(Br)cc1 (stereo not drawn) [Compound 322] | – | – | – | 7,8 ± 2,7 ml | 105 | –
27 | CC(=O)c1ccccc1NC1N=C(c2ccccc2F)c2cc([N+](=O)[O-])ccc2NC1=O (stereo not drawn) [Compound 347] | – | – | – | 6,5 ± 2,7 ml | 105 | –
28 | CC(=O)c1cccc(NC2N=C(c3ccccc3F)c3cc([N+](=O)[O-])ccc3NC2=O)c1 (stereo not drawn) [Compound 348] | – | – | – | 21,4 ± 4,9 ml | 284 | –
29 | CC(=O)c1ccc(NC2N=C(c3ccccc3F)c3cc([N+](=O)[O-])ccc3NC2=O)cc1 (stereo not drawn) [Compound 349] | – | – | – | 14 ± 1,8 ml | 189 | –
30 | O=C1Nc2ccc([N+](=O)[O-])cc2C(c2ccccc2F)=NC1Nc1ccccc1Cl (stereo not drawn) [Compound 356] | – | – | – | 2,9 ± 2,1 ml | 39 | Reduction in appetite and food consumption compared to control (food consumption by rats): 39%
31 | O=C1Nc2ccc([N+](=O)[O-])cc2C(c2ccccc2F)=NC1Nc1ccc(Cl)cc1 (stereo not drawn) [Compound 358] | – | – | – | 6,7 ± 3,2 ml | 90 | Effect on appetite (food consumption by rats): hyperphagic effect
32 | CN1C(=O)CN=C(c2ccccc2)c2cc(Cl)ccc21 [Diazepam, reference compound] | – | 120.0 ± 4.9 | 32.5 ± 2.8 | – | – | –
33 | COc1ccc2c(c1)c(CC(=O)O)c(C)n2C(=O)c1ccc(Cl)cc1 [indomethacin, reference compound] | – | – | – | – | – | ED50 [1]: 1.5 ± 0.26 mg/kg
34 | O=C(O)Cc1ccccc1Nc1c(Cl)cccc1Cl [sodium diclofenac, reference compound] | – | – | – | – | – | ED50 [1]: 10 ± 1.8 mg/kg

— US11358939B2, “1,4-benzodiazepin-2-one derivatives and use thereof” (priority 2017, dated 2022)
